In US20240009160A1, “USE OF (S)-3-AMINO-4-(DIFLUOROMETHYLENYL)CYCLOPENT-1-ENE-1-CARBOXYLIC ACID IN THE TREATMENT OF CANCER” (Ovid Therapeutics, Inc., priority 2022, published 2024):
Where two headings read alike, the source gives them in different places.

What was measured:
[1] = 45-day oral tolerability and electroretinogram study, head-to-head with vigabatrin; assay type: in vivo, mice
Procedure: (§1) In adult mice, an acute no-observed adverse-effect level (NOAEL) of 6 mg/kg by mouth was determined by evaluating behavioral neurotoxicity in naive animals. […] Based on these findings, it is clear that the inhibition of GABA-AT by (S)-3-amino-4-(difluoromethylenyl)cyclopent-1-ene-1-carboxylic acid is not necessarily associated with vigabatrin-like retinal toxicity.

[2] = Genetic toxicity in vitro
Salmonella typhimurium = assay type: cell-based
Procedure: (§2) A non-GLP safety assessment for changes in retinal function and structure were evaluated in rats. […] In addition, toxicity of (S)-3-amino-4-(difluoromethylenyl)cyclopent-1-ene-1-carboxylic acid was assessed in non-GLP single-dose and repeat dose toxicity studies in rats and dogs. […] (S)-3-amino-4-(difluoromethylenyl)cyclopent-1-ene-1-carboxylic acid was not genotoxic in the Ames assay. The Ames assay is a well-known method that uses several strains of the bacterium Salmonella typhimurium to test whether a given chemical can cause mutations in the DNA of the test organism. No CNS or cardiovascular safety liabilities were identified in an Irwin study in mice. The Irwin observation test is commonly used to evaluate the effects of a new substance on behavior and physiological function. Roux et al., Curr Protoc Pharmacol. 2005 Jan. 1; Chapter 10:Unit 10.

[3] = Plasma protein binding, dog; assay type: in vitro ADME; settings: 37° C., one range given for rat, dog and human, read-out: bound to plasma proteins
Procedure: (§3) (S)-3-amino-4-(difluoromethylenyl)cyclopent-1-ene-1-carboxylic acid was minimally bound (4 to 20%) to proteins in rat, dog, and human plasma at 37° C.

[4] = Plasma protein binding, rat; assay type: in vitro ADME; settings: 37° C., one range given for rat, dog and human, read-out: bound to plasma proteins
Procedure: as §3

[5] = Pharmacokinetics after oral administration in rat; settings: in vivo
hERG channel = hERG channel (Homo sapiens, UniProt Q12809); experiment: hERG channel activity in vitro
[6] = Non-GLP 10-day repeat dose toxicity study in rats; assay type: in vivo; settings: for human dose converted from tolerated rat dose: Reagan-Shaw conversion
Procedure: as §2

[7] = Non-GLP safety assessment of retinal function and structure; assay type: in vivo, rats
Procedure: as §2

[8] = Acute behavioral neurotoxicity in naive adult mice; settings: in vivo, oral
Procedure: as §1

[9] = Clearance in dog hepatocytes; assay type: in vitro ADME; settings: read-out: intrinsic clearance (CIint)
[10] = Non-GLP 10-day repeat dose toxicity study in dogs; assay type: in vivo
Procedure: as §2

[11] = Plasma protein binding, human; assay type: in vitro ADME; settings: 37° C., one range given for rat, dog and human, read-out: bound to plasma proteins
Procedure: as §3

[12] = Clearance in human hepatocytes; assay type: in vitro ADME; settings: read-out: intrinsic clearance (CIint)
[13] = Clearance in rat hepatocytes; assay type: in vitro ADME; settings: read-out: intrinsic clearance (CIint)
[14] = Pharmacokinetics after oral administration in dog; assay type: in vivo

hERG channel, sequence (Q12809 whole entry): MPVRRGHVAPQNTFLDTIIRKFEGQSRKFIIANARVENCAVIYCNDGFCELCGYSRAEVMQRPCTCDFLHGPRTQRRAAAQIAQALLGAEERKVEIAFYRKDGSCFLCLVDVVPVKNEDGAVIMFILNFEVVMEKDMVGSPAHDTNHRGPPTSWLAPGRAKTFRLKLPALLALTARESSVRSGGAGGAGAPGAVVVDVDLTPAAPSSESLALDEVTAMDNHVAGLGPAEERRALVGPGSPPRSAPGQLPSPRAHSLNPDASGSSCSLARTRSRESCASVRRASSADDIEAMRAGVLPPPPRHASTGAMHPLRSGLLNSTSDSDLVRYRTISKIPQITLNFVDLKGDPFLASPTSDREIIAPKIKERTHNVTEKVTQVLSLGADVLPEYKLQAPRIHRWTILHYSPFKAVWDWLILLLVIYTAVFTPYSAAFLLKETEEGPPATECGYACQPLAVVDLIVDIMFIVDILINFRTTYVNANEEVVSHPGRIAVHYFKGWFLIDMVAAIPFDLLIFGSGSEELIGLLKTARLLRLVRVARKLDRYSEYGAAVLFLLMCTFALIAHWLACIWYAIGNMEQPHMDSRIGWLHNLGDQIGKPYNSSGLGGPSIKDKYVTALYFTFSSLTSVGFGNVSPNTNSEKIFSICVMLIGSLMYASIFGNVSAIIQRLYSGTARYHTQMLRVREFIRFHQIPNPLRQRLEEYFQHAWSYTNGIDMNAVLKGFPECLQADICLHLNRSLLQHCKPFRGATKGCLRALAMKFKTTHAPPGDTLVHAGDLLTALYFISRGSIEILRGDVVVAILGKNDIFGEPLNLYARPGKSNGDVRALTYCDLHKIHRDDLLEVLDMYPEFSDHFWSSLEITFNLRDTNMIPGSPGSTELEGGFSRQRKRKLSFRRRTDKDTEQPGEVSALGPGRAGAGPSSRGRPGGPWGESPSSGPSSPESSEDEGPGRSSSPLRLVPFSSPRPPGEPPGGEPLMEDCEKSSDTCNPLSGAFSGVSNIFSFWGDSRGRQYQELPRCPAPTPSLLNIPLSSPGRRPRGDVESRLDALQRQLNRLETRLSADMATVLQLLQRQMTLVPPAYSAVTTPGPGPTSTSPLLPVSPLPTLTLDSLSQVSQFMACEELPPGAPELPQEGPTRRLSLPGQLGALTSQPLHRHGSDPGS

With `C=CC(N)CCC(=O)O` (stereo not shown) [vigabatrin, reference compound] as the compound, how does the “retinal B-wave amplitudes” value ([1]; mouse, in vivo) read?
The value was “reductions in retinal B-wave amplitudes”.

What about the weight ([1]; mouse, in vivo) of the same compound?
Its weight is “marked reduction in weight”.

With `N[C@H]1C=C(C(=O)O)CC1=C(F)F` [(S)-3-amino-4-(difluoromethylenyl)cyclopent-1-ene-1-carboxylic acid] as the compound, how does the genetic toxicity [2] read?
Its genetic toxicity is “No evidence of genetic toxicity”.

What about the tolerability ([1]; 1 mg/kg/d by mouth for 45 days) of the same compound?
The tolerability was “well tolerated”.

And the “human dose converted from tolerated mouse dose” value ([1]; from 1 mg/kg/day mouse, Reagan-Shaw conversion)?
Its value is 0.08 mg/kg/day.

What about the “genotoxicity in the Ames assay” value (Salmonella typhimurium) of the same compound?
Its value is “not genotoxic”.

What about the fraction unbound [3] of the same compound?
Its fraction unbound is 0.8 to 0.96.

And the fraction unbound [4]?
Its fraction unbound is 0.8 to 0.96.

And the half-life ([5]; read-out: elimination half-life (t½))?
The half-life was 75 to 90 min.

And the Tmax ([5]; read-out: time of maximum concentration (Tmax))?
The Tmax was 15 to 30 min.

What about the hERG channel activity (hERG channel) of the same compound?
Its hERG channel activity is “No evidence of genetic toxicity or hERG channel activity”.

What about the “well tolerated dose, female rats” value ([6]; 10-day dosing, female rats) of the same compound?
Its value is at most 10 mg/kg.

And the “well tolerated dose, male rats” value ([6]; 10-day dosing, male rats)?
Its value is “up to 15 mg/kg”.

And the “human dose converted from tolerated rat dose” value ([6]; from 10 mg/kg rat)?
Its value is 1.62 mg/kg.

What about the “human dose converted from tolerated rat dose” value ([6]; from 15 mg/kg rat) of the same compound?
The value was 2.4 mg/kg.

What about the “human dose converted from tolerated rat dose” value ([7]; from 1 mg/kg/day rat (so in the source), Reagan-Shaw conversion) of the same compound?
The value was 0.48 mg/kg/day.

What about the “well tolerated dose for all assessed ocular endpoints” value ([7]; rats, 45 days, fundoscopy, ERG, OCT and histological assessments, initial results) of the same compound?
Its value is “up to 3 mg/kg/day”.

What about the NOAEL ([8]; from 6 mg/kg mouse, Reagan-Shaw conversion, read-out: human dose converted from mouse NOAEL) of the same compound?
Its NOAEL is 0.49 mg/kg.

And the NOAEL ([8]; mouse, adult mice, by mouth, behavioral neurotoxicity, read-out: acute no-observed adverse-effect level (NOAEL))?
Its NOAEL is 6 mg/kg.

And the CLint scaled [9]?
The CLint scaled was 8.97 mL/min/kg.

What about the “well tolerated dose, dogs” value ([10]; 10-day dosing, male and female dogs) of the same compound?
Its value is “up to 1.0 mg/kg”.

And the “human dose converted from tolerated dog dose” value ([10]; from 1 mg/kg dog, Reagan-Shaw conversion)?
Its value is 1.54 mg/kg.

And the fraction unbound [11]?
The fraction unbound was 0.8 to 0.96.

What about the CLint scaled [12] of the same compound?
The CLint scaled was 13.1 mL/min/kg.

What about the CLint scaled [13] of the same compound?
Its CLint scaled is 24.3 mL/min/kg.

What about the “exposure (AUC basis) in dogs compared with rats” value ([14]; equivalent oral doses) of the same compound?
Its value is “higher exposure”.

What about the half-life ([14]; in vivo, dog, oral administration, read-out: elimination half-life (t½)) of the same compound?
Its half-life is 75 to 90 min.

What about the Tmax ([14]; in vivo, dog, oral administration, read-out: time of maximum concentration (Tmax)) of the same compound?
Its Tmax is 15 to 30 min.
